Results as given in patent publication US10653658B2, “Biofilm inhibiting compositions enhancing weight gain in livestock” (Akeso Biomedical, Inc., priority 2015, dated 2020).

What was measured:
Campylobacter [1] = test: Campylobacter carriage in chickens, cfu/g of droppings and caeca at day 42 (Example 1); format: in vivo
Protocol: A study was performed to evaluate growth promotion and reduction of Campylobacter carriage using FeQ and FeTyr in Ross 308 male broilers with 7 treatment groups. Each treatment group comprised four replicates of 10 birds per pen (40 birds/treatment group and 4 pens of 10 birds/treatment group), with 2 control groups and 5 test groups. All the test groups and one of the control groups were exposed at day 20 of the trial to dirty litter, which tested positive for Campylobacter. This method was used to provide a more natural method to Campylobacter challenge the birds. Thus there was a positive control where one treatment group was challenged with Campylobacter and one negative control group where the birds were not challenged, and five treatment groups that were all challenged with Campylobacter. The total number of birds used in the 7 treatment groups was 280. Treatment group 1 was a negative control where birds just received the commercial feed, and were not challenged with dirty litter containing Campylobacter. Treatment group 2 was the positive control where the birds received the commercial feed, and were challenged with dirty litter containing Campylobacter at day 20. Treatment group 3 received 0.22 g/L of FeQ in their drinking water and 0.22 g/Kg FeQ in their feed during the entire trial, and was challenged with dirty litter containing Campylobacter at day 20. Treatment group 5 received 0.22 g/L of FeQ in their drinking water during the entire trial, and was challenged with dirty litter containing Campylobacter at day 20. Treatment group 6 received 0.22 g/kg FeQ in their feed during the entire trial, and was challenged with dirty litter containing Campylobacter at day 20. Treatment group 7 received 0.022 g/L FeQ in their drinking water during the entire trial, and was challenged with dirty litter containing Campylobacter at day 20. Treatment group 8 received 0.02 g/L FeTyr in their drinking water during the entire trial, and was challenged with dirty litter containing Campylobacter at day 20. The FeTyr was pre-dissolved in DMSO, and diluted to provide a solution of 0.02 g/L of FeTyr in water. (An additional treatment group 4 was terminated due to solubility issues.)
Prior to challenging the chickens with dirty litter containing Campylobacter at day 20, each pen was tested for Campylobacter using cloacal swabs. All pens tested negative for Campylobacter prior to the challenge. At day 20, litter, which was naturally Campylobacter-contaminated, was tested to confirm the presence of Campylobacter, and then added (approximately 2 kg/pen) to the litter in all pens except in pens for treatment group 1 (the negative control). At day 28, the pen litter was sampled to confirm the presence or absence of Campylobacter. At day 41 and 42, caecal samples were taken from 3 birds per pen (12 birds per treatment group) and tested for Campylobacter enumeration. At day 42, digesta, fecal samples, and caecal content was taken from all birds, and pooled per pen. Two birds per pen were also taken from treatment groups 1-3, euthanized, and blood samples taken. Samples were analyzed for blood chemistry, including analysis for alkaline phosphatase, aspartate amino transferase, alanine amino transferase, gamma-glutamyl transferase, lactate dehydrogenase, total protein, albumin, globulin, amylase and glucose.

Campylobacter jejuni = test: Campylobacter carriage in chickens after oral challenge, caecal contents at day 35 (Example 9); format: in vivo; details: 340 μM in the drinking water; oral challenge at day 14
Protocol: A study was performed to evaluate reduction of Campylobacter carriage in chickens using ferric lactate in one treatment group, and FeQ (Q-PLEX) in a second treatment group. A third treatment group served as a positive control. The ferric lactate and FeQ were administered to the treatment groups at a concentration of 340 μM in the drinking water. Each treatment group comprised 12 birds per pen. All three treatment groups were orally challenged with 10^5 cfu of Campylobacter jejuni at day 14 of the trial. At day 35 all birds were euthanized, and quantitative bacteriology performed on caecal contents.

Campylobacter [2] = test: Campylobacter cfu/g of caeca at day 42 (Example 10); format: in vivo; details: in feed
Protocol: (§1) A study was performed to evaluate growth promotion and reduction of Campylobacter carriage using FeTyr in Ross 308 male broilers with 7 treatment groups. Each treatment group comprised eight replicates of 10 birds per pen (80 birds/treatment group), with 2 control groups and […]. All the test groups and both of the control groups were exposed at day 20 of the trial to dirty litter, which tested positive for Campylobacter. This method was used to provide a more natural method to Campylobacter challenge the birds. Thus there were two positive controls where each treatment group was challenged with Campylobacter, and five treatment groups that were all challenged with Campylobacter. The total number of birds used in the 7 treatment groups was 560.
(§2) At day 20, litter, which was naturally Campylobacter-contaminated, was tested to confirm the presence of Campylobacter, and then added (approximately 2 kg/pen) to the litter in all pens. At day 42, caecal samples were taken and tested for Campylobacter, E. coli and Salmonella enumeration.

Salmonella = Salmonella cfu/g of caeca at day 42 (Example 10); format: in vivo; details: in feed
Protocol: as §1, §2

E. coli = E. coli cfu/g of caeca at day 42 (Example 10); format: in vivo
Protocol: as §1, §2

[3] = test system: Campylobacter jejuni NCTC 11168; test: Biofilm formation on plastic coated UV beads (Example 6); details: Fe-Tart and Fe-Cit at 50, 100, and 300 μM; FeQ (QPLEX) at 300

O=C([O-])C1(O)CC(O)C(O)C(O)C1.O=C([O-])C1(O)CC(O)C(O)C(O)C1.O=C([O-])C1(O)CC(O)C(O)C(O)C1.[Fe+3] (stereo not shown) [FeQ, Ferric Quinate]
Campylobacter cfu/g of bird droppings at day 42 (FIG. 3), low concentration (Campylobacter [1]; 0.022 g/L FeQ in water, treatment group 7, considered likely experimental error): less of an effect than the other treatment groups
Campylobacter cfu/g of caeca samples at day 42 (FIG. 4), low concentration (Campylobacter [1]; treatment group 7: 0.022 g/L FeQ in water): highly beneficial effect
Campylobacter cfu/g of caeca samples at day 42 compared with positive control (FIG. 4) (Campylobacter [1]; treatment groups 3 and 5-8): positive effect on reducing Campylobacter infection
Campylobacter cfu/g of bird droppings at day 42 compared with positive control (FIG. 3) (Campylobacter [1]; treatment groups 3 and 6-8): positive effect on reducing Campylobacter infection
levels of Campylobacter in caeca at day 35 compared with positive control (FIG. 11) (Campylobacter jejuni): lower levels of Campylobacter in their caeca
Campylobacter cfu/g of caeca at day 42 (FIG. 14) (Campylobacter [2]): positive effect on reducing Campylobacter infection
Salmonella cfu/g of caeca at day 42 (FIG. 15) (Salmonella): positive effect on reducing Campylobacter infection
E. coli cfu/g of caeca at day 42 (FIG. 16) (E. coli; in feed): positive effect on reducing Campylobacter infection
levels of E. coli in poultry upon treatment (E. coli; poultry data): lower levels of E. coli
C. jejuni biofilm formation on plastic coated UV beads (FIG. 9) [3]: inhibited C. jejuni biofilm formation
